One may read the IC50 as the concentration that inhibits the measured activity by half. Read a high IC50 as weaker potency in that assay.

In one series the target is T1, SARS-CoV-2 RBD (Severe acute respiratory syndrome coronavirus 2, UniProt P0DTC2).
T1 construct: hexahistidine (C); made in house; host or cells: FreeStyle 293 F cells
The class given is binding.

In series [1] the test system is pseudoviral particles bearing the SARS-CoV-1 Spike. Nature of the series: microbe, parasite or virus in culture. Conditions: Severe acute respiratory syndrome coronavirus, HEK-293T. It is filed as cell-based.
Series [2] deals with pseudoviral particles expressing the Spike from SARS-CoV-2. As to the kind of experiment: microbe, parasite or virus in culture. It is filed as cell-based.
In series [3] the test system is pseudoviral particles bearing the VSV-G. Nature of the series: microbe, parasite or virus in culture. It is filed as cell-based. Conditions: Vesicular stomatitis virus, HEK-293T.
The test system of series [4] is SARS-CoV-2 S glycoprotein.
The next series deals with VERO-E6 cells. Nature of the series: Toxicity on VERO-E6 cells, AquaVivid staining. The following applies: concentrations up to 100 μM.

Consider `C=CCC(/C=C/OCC(O)CN(CC)CCC)OCC(O)CN(CC)CCC` (stereo not shown) [VE607], for which the “ΔTm (change of melting temperature of RBD)” value on SARS-CoV-2 RBD is −2.3 °C. Besides, the IC50 in series [1] is 1.47 µM; in series [2] (Severe acute respiratory syndrome coronavirus 2, HEK-293T), 3.06 µM; in series [3] it was more than 100 µM. In addition, the “effect on Spike conformational landscape (up/down)” value in series [4] is “stabilized the “up” conformation”. For the same molecule, the toxicity result with VERO-E6 cells is “no toxicity was observed”.
Consider `O[C@H](COc1cccc(OC[C@H](O)CN2CCCCC2)c1)CN1CCCCC1` [(R,S)-VE607], for which the “fold less potent than the two other enantiomers in SARS-CoV-2 pseudoviral inhibition” value in series [2] (SARS-CoV-2 S pseudoviral particles) is “about 2 fold”.
Consider `CN1CCN(c2ccc(CNC(=O)c3ccno3)cc2)CC1` [SSAA09E2, reference compound], for which the “ΔTm (change of melting temperature of RBD)” value on SARS-CoV-2 RBD was −0.7 °C. Moreover, in series [2], the “effect on the infection of pseudoviral particles” value is recorded as “no effect”.
In the case of sACE2, in series [4], the “effect on Spike conformational landscape (up/down)” value was “shifted the conformational landscape of the Spike to the “up” conformation”.

(Values after US20250144087A1, “USE OF VE607 FOR THE TREATMENT OF SARS-COV-2 INFECTIONS AND RELATED DISEASES” (priority 2022, published 2025).)
